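96-well plates; 48 h exposure; 5 concentrations. Endpoints by linear interpolation between flanking doses. Not reached: highest tested concentration assigned. GI50: concentration for 50% inhibition of growth.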 Activity calls are given as the source filed them. Cut-off read from the data, not from the text of the source: active = GI50 up to about 1.1 µM and inactive = higher.
How the values were obtained:
Experiment in all cases: DTP human tumour cell line panel, 48 h
[1] = system: RXF 393
[2] = system: MDA-N
[3] = system: UACC-257
[4] = system: SK-OV-3
[5] = system: 786-0
[6] = system: Hs-578T
[7] = system: ACHN
[8] = system: PC-3
[9] = system: KM12
[10] = system: NCI-H460
[11] = system: SK-MEL-2
[12] = system: UACC-62
[13] = system: SNB-75
[14] = system: SF-539
[15] = system: K562
[16] = system: BT-549
[17] = system: MDA-MB-435
[18] = system: EKVX
[19] = system: CAKI-1
[20] = system: UO-31
[21] = system: OVCAR-4
[22] = system: TK-10
[23] = system: NCI-H23
[24] = system: SN12C
[25] = system: CCRF-CEM
[26] = system: SR
[27] = system: U-251
[28] = system: HT-29
[29] = system: LOX IMVI
[30] = system: COLO 205
[31] = system: HL-60
[32] = system: OVCAR-8
[33] = system: IGROV-1
[34] = system: HCT-116
[35] = system: SK-MEL-28
[36] = system: Malme-3M
[37] = system: OVCAR-5
[38] = system: MCF7
[39] = system: HCT-15
[40] = system: SNB-19
[41] = system: MDA-MB-231
[42] = system: T47D
[43] = system: NCI/ADR-RES
[44] = system: HOP-62
[45] = system: MOLT-4
[46] = system: SK-MEL-5
[47] = system: RPMI-8226
[48] = system: M14
[49] = system: SW-620
[50] = system: SF-268
[51] = system: OVCAR-3
[52] = system: A498
[53] = system: SF-295
[54] = system: NCI-H226
[55] = system: HCC 2998
[56] = system: DU-145
[57] = system: A549
[58] = system: HOP-92
[59] = system: NCI-H522

C[n+]1c2ccccc2c2/c(=C\C#N)c3ccccc3n21
GI50 [1]: 4.85 µM (inactive)
GI50 [2]: 3.7 µM (inactive)
GI50 [3]: 3.06 µM (inactive)
GI50 [4]: 3.88 µM (inactive)
GI50 [5]: 3.5 µM (inactive)
GI50 [6]: 4.21 µM (inactive)
GI50 [7]: 4.91 µM (inactive)
GI50 [8]: 2.86 µM (inactive)
GI50 [9]: 3.61 µM (inactive)
GI50 [10]: 4.35 µM (inactive)
GI50 [11]: 3.49 µM (inactive)
GI50 [12]: 10.7 µM (inactive)
GI50 [13]: 3.23 µM (inactive)
GI50 [14]: 4.82 µM (inactive)
GI50 [15]: 5.42 µM (inactive)
GI50 [16]: 3.42 µM (inactive)
GI50 [17]: 5.43 µM (inactive)
GI50 [18]: 2.44 µM (inactive)
GI50 [19]: 23.8 µM (inactive)
GI50 [20]: 12.6 µM (inactive)
GI50 [21]: 2.79 µM (inactive)
GI50 [22]: 1.69 µM (inactive)
GI50 [23]: 5.11 µM (inactive)
GI50 [24]: 3.42 µM (inactive)
GI50 [25]: 3.66 µM (inactive)
GI50 [26]: 3.91 µM (inactive)
GI50 [27]: 2.73 µM (inactive)
GI50 [28]: 3.82 µM (inactive)
GI50 [29]: 3.48 µM (inactive)
GI50 [30]: 1.56 µM (inactive)
GI50 [31]: 3.85 µM (inactive)
GI50 [32]: 3.52 µM (inactive)
GI50 [33]: 3 µM (inactive)
GI50 [34]: 3.03 µM (inactive)
GI50 [35]: 9.25 µM (inactive)
GI50 [36]: 2.53 µM (inactive)
GI50 [37]: 5.78 µM (inactive)
GI50 [38]: 2.16 µM (inactive)
GI50 [39]: 28.4 µM
GI50 [40]: 5.24 µM (inactive)
GI50 [41]: 4.43 µM (inactive)
GI50 [42]: 5.73 µM (inactive)
GI50 [43]: 32 µM (inactive)
GI50 [44]: 2.84 µM (inactive)
GI50 [45]: 3.54 µM (inactive)
GI50 [46]: 6.53 µM (inactive)
GI50 [47]: 3.28 µM (inactive)
GI50 [48]: 4.15 µM (inactive)
GI50 [49]: 3.07 µM (inactive)
GI50 [50]: 6.27 µM (inactive)
GI50 [51]: 3.44 µM (inactive)
GI50 [52]: 20 µM (inactive)
GI50 [53]: 5.82 µM (inactive)
GI50 [54]: 3.81 µM (inactive)
GI50 [55]: 1.61 µM (inactive)
GI50 [56]: 6.75 µM (inactive)
GI50 [57]: 6.92 µM (inactive)

CC(C)(C)OC(=O)N1C(OP(=O)(Oc2ccccc2)Oc2ccccc2)=COc2cccnc21
GI50 [58]: 26.1 µM (inactive)
GI50 [1]: 91.8 µM (inactive)
GI50 [2]: 36.3 µM (inactive)
GI50 [3]: 30 µM (inactive)
GI50 [4]: 98.2 µM (inactive)
GI50 [5]: 94.6 µM (inactive)
GI50 [6]: 86.5 µM (inactive)
GI50 [7]: 29.9 µM (inactive)
GI50 [8]: 84.5 µM (inactive)
GI50 [9]: 31.4 µM (inactive)
GI50 [10]: 31.8 µM (inactive)
GI50 [11]: 22.3 µM (inactive)
GI50 [12]: 64.6 µM (inactive)
GI50 [13]: 33.3 µM (inactive)
GI50 [14]: > 100 µM (inactive)
GI50 [15]: 44.9 µM (inactive)
GI50 [16]: 63.7 µM (inactive)
GI50 [17]: 39.4 µM (inactive)
GI50 [18]: 60.7 µM (inactive)
GI50 [19]: 40.3 µM (inactive)
GI50 [20]: 42.9 µM (inactive)
GI50 [21]: 45.8 µM (inactive)
GI50 [22]: 31 µM (inactive)
GI50 [23]: 45.5 µM (inactive)
GI50 [24]: 70.1 µM (inactive)
GI50 [26]: 27.3 µM (inactive)
GI50 [27]: 40.5 µM (inactive)
GI50 [28]: 82.6 µM (inactive)
GI50 [29]: 26.1 µM (inactive)
GI50 [30]: 34.8 µM (inactive)
GI50 [31]: 16.2 µM (inactive)
GI50 [32]: 43.2 µM (inactive)
GI50 [33]: 42.6 µM (inactive)
GI50 [34]: 51.2 µM (inactive)
GI50 [35]: 54.2 µM (inactive)
GI50 [36]: 30.6 µM (inactive)
GI50 [37]: > 100 µM (inactive)
GI50 [38]: 32.7 µM (inactive)
GI50 [39]: 48.8 µM
GI50 [40]: 78.9 µM (inactive)
GI50 [41]: 71 µM (inactive)
GI50 [42]: 23 µM (inactive)
GI50 [59]: 47 µM (inactive)
GI50 [43]: 40.7 µM (inactive)
GI50 [44]: 60.5 µM (inactive)
GI50 [45]: 17.7 µM (inactive)
GI50 [46]: 18.4 µM (inactive)
GI50 [47]: 21.8 µM (inactive)
GI50 [48]: 37.1 µM (inactive)
GI50 [49]: 38.9 µM (inactive)
GI50 [50]: 63.2 µM (inactive)
GI50 [51]: 72.3 µM (inactive)
GI50 [53]: 34.7 µM (inactive)
GI50 [54]: 69.8 µM (inactive)
GI50 [55]: 42.1 µM (inactive)
GI50 [56]: > 100 µM (inactive)
GI50 [57]: 46.6 µM (inactive)

Cc1[nH]n(-c2nc(O)c(-c3ccccc3)c(=O)[nH]2)c(=O)c1CCO
GI50 [58]: > 100 µM (inactive)
GI50 [1]: > 100 µM (inactive)
GI50 [2]: > 100 µM (inactive)
GI50 [3]: > 100 µM (inactive)
GI50 [4]: > 100 µM (inactive)
GI50 [5]: > 100 µM (inactive)
GI50 [6]: > 100 µM (inactive)
GI50 [7]: > 100 µM (inactive)
GI50 [8]: > 100 µM (inactive)
GI50 [9]: > 100 µM (inactive)
GI50 [10]: > 100 µM (inactive)
GI50 [11]: > 100 µM (inactive)
GI50 [12]: > 100 µM (inactive)
GI50 [13]: 54.5 µM (inactive)
GI50 [14]: > 100 µM (inactive)
GI50 [15]: > 100 µM (inactive)
GI50 [16]: > 100 µM (inactive)
GI50 [17]: > 100 µM (inactive)
GI50 [18]: > 100 µM (inactive)
GI50 [19]: > 100 µM (inactive)
GI50 [20]: > 100 µM (inactive)
GI50 [21]: > 100 µM (inactive)
GI50 [22]: > 100 µM (inactive)
GI50 [23]: > 100 µM (inactive)
GI50 [24]: > 100 µM (inactive)
GI50 [25]: > 100 µM (inactive)
GI50 [26]: > 100 µM (inactive)
GI50 [27]: > 100 µM (inactive)
GI50 [28]: > 100 µM (inactive)
GI50 [30]: > 100 µM (inactive)
GI50 [31]: > 100 µM (inactive)
GI50 [32]: > 100 µM (inactive)
GI50 [33]: > 100 µM (inactive)
GI50 [34]: > 100 µM (inactive)
GI50 [35]: > 100 µM (inactive)
GI50 [36]: > 100 µM (inactive)
GI50 [37]: > 100 µM (inactive)
GI50 [38]: > 100 µM (inactive)
GI50 [39]: > 100 µM
GI50 [40]: > 100 µM (inactive)
GI50 [41]: > 100 µM (inactive)
GI50 [42]: > 100 µM (inactive)
GI50 [59]: > 100 µM (inactive)
GI50 [43]: > 100 µM (inactive)
GI50 [45]: > 100 µM (inactive)
GI50 [46]: > 100 µM (inactive)
GI50 [47]: > 100 µM (inactive)
GI50 [48]: > 100 µM (inactive)
GI50 [49]: > 100 µM (inactive)
GI50 [50]: > 100 µM (inactive)
GI50 [52]: > 100 µM (inactive)
GI50 [53]: > 100 µM (inactive)
GI50 [54]: > 100 µM (inactive)
GI50 [56]: > 100 µM (inactive)
GI50 [57]: > 100 µM (inactive)

Source: ChEMBL document CHEMBL1201862, “PubChem BioAssay data set” (2004)
